In ChEMBL document CHEMBL1201862, “PubChem BioAssay data set” (2004):
Values belong to the compound of their own block, whether it stands above or below them. The source made the active and inactive calls.

Tests used:
[1] = molecular target: T1, Protein disulfide-isomerase (Homo sapiens, UniProt P07237); experiment: inhibition of PDI-mediated insulin reduction – biochemical, turbidity, dry powder samples, set 2, confirmation (AID 652146)
[2] = loss of viability in HeLa cells – cell-based, ATP luminescence, dry powder, cytotoxicity control, dose response (AID 652117); assay type: functional
[3] = molecular target: T1, Protein disulfide-isomerase; experiment: inhibition of PDI-driven insulin aggregation – biochemical, turbidity, absorbance, cherry-picked samples, dose response (AID 602350); assay type: functional
[4] = system: Vero; experiment: inhibition of WNV-induced cytopathic effect – cell-based, CPE readout (AID 1621); assay type: functional; details: Chlorocebus sabaeus
[5] = molecular target: Neuropeptides B/W receptor type 1 (Homo sapiens, UniProt P48145); experiment: human NPBW1 receptor blockade, IC50 – cell-based, fluorescence, dose response, set 5, late-stage follow-up (AID 588566); assay type: functional
[6] = molecular target: Melanin-concentrating hormone receptor 1 (Homo sapiens, UniProt Q99705); experiment: Late-stage fluorescence-based counterscreen for antagonists of the G-protein coupled receptor 7 (GPR7): cell-based dose response assay to identify antagonists of the melanin-concentrating hormone receptor 1 (MCHR1) Set 5.; assay type: functional
[7] = molecular target: Multidrug resistance protein CDR1 (Candida albicans, UniProt P43071); experiment: inhibition of Nile Red efflux via Candida CDR1 – S. cerevisiae AD1-8u, singleplex, Cherry Pick1 hits, dose response (AID 588606); assay type: functional
[8] = molecular target: Benomyl/methotrexate resistance protein (Candida albicans, UniProt P28873); experiment: Candida albicans Mdr1 pump inhibition curves – singleplex, Cherry Pick1 hits, dose response (AID 588608); assay type: functional
[9] = molecular target: Mast/stem cell growth factor receptor Kit (Homo sapiens, UniProt P10721); assay type: functional;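 also: KIT entry within a kinase panel assay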
[10] = molecular target: Vascular endothelial growth factor receptor 2 (Homo sapiens, UniProt P35968); assay type: functional
[11] = molecular target: Tyrosine-protein kinase Fyn (Homo sapiens, UniProt P06241); assay type: functional
[12] = molecular target: Tyrosine-protein kinase Blk (Homo sapiens, UniProt P51451); assay type: functional;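 also: obtained as one member of a kinome-wide kinase assay panel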
[13] = molecular target: Proto-oncogene tyrosine-protein kinase Src (Homo sapiens, UniProt P12931); assay type: functional;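 also: SRC entry within a kinome-wide kinase profiling panel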
[14] = molecular target: Vascular endothelial growth factor receptor 1 (Homo sapiens, UniProt P17948); assay type: functional;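 also: measured within a kinome-wide profiling panel, FLT1 as the panel member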
[15] = molecular target: Vascular endothelial growth factor receptor 3 (Homo sapiens, UniProt P35916); assay type: functional;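 also: value from a kinome-wide profiling panel, with FLT4 as the panel member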
[16] = molecular target: Tyrosine-protein kinase Lck (Homo sapiens, UniProt P06239); assay type: functional;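 also: lck was assayed as one member of a kinase panel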
[17] = molecular target: Macrophage colony-stimulating factor 1 receptor (Homo sapiens, UniProt P07333); assay type: functional;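 also: value comes from the Navigating the Kinome screening panel, CSF1R member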
[18] = molecular target: Tyrosine-protein kinase Lyn (Homo sapiens, UniProt P07948); assay type: functional;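 also: lyn as one member of a kinase panel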
[19] = molecular target: Tyrosine-protein kinase ABL1 (Homo sapiens, UniProt P00519); assay type: functional
[20] = molecular target: T2, Receptor-type tyrosine-protein kinase FLT3 (Homo sapiens, UniProt P36888); assay type: functional;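 also: FLT3 was tested as one member of a kinome-wide kinase panel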
T2 sequence (P36888 whole entry): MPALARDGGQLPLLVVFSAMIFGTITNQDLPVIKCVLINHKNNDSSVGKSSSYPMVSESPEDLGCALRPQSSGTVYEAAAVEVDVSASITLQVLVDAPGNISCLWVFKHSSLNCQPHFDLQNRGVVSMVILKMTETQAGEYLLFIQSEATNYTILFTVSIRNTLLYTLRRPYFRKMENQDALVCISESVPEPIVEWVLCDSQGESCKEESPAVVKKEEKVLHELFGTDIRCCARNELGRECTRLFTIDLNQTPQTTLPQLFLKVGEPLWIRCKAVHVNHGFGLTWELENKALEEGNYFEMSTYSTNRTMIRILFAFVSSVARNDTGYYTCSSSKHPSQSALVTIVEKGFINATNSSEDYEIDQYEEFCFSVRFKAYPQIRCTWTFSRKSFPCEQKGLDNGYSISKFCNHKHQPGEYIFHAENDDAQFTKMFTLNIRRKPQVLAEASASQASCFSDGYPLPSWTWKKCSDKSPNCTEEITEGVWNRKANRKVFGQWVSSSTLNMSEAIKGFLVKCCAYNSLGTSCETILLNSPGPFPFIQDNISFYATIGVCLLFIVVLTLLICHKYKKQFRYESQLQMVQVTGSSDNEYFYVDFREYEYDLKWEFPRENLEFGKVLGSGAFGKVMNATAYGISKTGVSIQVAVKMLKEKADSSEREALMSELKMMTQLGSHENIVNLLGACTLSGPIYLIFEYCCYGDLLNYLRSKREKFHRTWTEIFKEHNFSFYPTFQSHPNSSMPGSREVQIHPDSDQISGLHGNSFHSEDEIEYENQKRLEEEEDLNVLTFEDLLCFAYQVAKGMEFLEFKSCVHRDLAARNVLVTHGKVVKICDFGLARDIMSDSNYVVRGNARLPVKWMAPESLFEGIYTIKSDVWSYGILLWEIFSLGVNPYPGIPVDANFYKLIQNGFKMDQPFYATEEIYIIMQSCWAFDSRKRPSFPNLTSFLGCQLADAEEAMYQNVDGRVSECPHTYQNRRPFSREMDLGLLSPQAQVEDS

[21] = HEK-293T cell viability reduction – luminescence, B-cell screen hits, cytotoxicity control for BCR NF-kB inhibitor project, dose response (AID 489021); assay type: functional, cell-based;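 also: HEK-293T cells carrying an NF-kB luciferase reporter; cells exposed to compound for about 14 hours before viability readout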
[22] = molecular target: T3, High affinity choline transporter 1 (Homo sapiens, UniProt Q9GZV3); experiment: human choline transporter potentiators, potency – cell-based, 10-point CRC, membrane potential dye, dose response (AID 602376); assay type: functional
T3 sequence (Q9GZV3 whole entry): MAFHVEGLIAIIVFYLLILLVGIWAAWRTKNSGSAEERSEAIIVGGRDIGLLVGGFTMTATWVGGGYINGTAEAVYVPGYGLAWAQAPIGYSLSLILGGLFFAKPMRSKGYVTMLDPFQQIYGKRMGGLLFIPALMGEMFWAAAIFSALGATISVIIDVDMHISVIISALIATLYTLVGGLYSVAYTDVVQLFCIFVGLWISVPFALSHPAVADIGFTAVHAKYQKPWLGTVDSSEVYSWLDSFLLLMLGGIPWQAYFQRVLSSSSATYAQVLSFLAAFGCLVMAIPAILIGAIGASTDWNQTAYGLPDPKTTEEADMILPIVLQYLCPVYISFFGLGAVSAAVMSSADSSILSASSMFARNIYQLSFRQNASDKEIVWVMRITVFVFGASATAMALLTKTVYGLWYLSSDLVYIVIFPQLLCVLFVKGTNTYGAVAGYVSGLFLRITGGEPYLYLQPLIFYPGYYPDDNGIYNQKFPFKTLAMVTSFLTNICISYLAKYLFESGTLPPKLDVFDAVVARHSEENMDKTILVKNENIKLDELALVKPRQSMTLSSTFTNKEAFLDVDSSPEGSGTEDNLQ

[23] = system: INS1; experiment: INS-1E survival protection against cytokine death – cell-based, luminescence, retest, dose response (AID 449756); assay type: functional; details: Rattus norvegicus;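 also: cell death triggered by IL-1 beta plus TNF-alpha plus IFN-gamma mixture; protective hits raise ATP signal compared with cytokine alone wells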
[24] = Trypanosoma cruzi growth suppression in host cells – NIH3T3 host cells, beta-gal luminescence, confirmation (AID 2044); assay type: functional, cell-based;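 also: intracellular parasites grown in NIH/3T3 mouse fibroblasts as host cells; luminescent beta-galactosidase reporter signal from transgenic T. cruzi replicating inside host cells; inhibitors lower the luminescence signal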
[25] = NIH3T3 cell viability loss – ATP luminescence, mouse fibroblasts, counter-screen, dose response (AID 2010); assay type: functional, cell-based;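 also: cells exposed to compound for about 90 hours before reading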
[26] = molecular target: T4, Ubiquitin-conjugating enzyme E2 N (Homo sapiens, UniProt P61088); assay type: functional;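 also: Dose-response confirmation in a TR-FRET assay detecting UBC13-driven polyubiquitin chain formation, inhibition measured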
T4 sequence (P61088 whole entry): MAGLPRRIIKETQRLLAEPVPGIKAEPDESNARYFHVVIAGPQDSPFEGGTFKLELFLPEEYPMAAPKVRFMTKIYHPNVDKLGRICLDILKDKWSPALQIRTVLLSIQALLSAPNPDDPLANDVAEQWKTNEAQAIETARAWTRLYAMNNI

[27] = molecular target: Prothrombin (Bos taurus, UniProt P00735); experiment: thrombin protease inhibitors – biochemical, fluorescence polarization, uHTS hits, dose response (AID 602369); assay type: functional
[28] = molecular target: 72 kDa type IV collagenase (Homo sapiens, UniProt P08253); experiment: Dose Response validation of uHTS RPN11 inhibitor hits using a MMP-2 Fluorescence assay.; assay type: functional
[29] = molecular target: 26S proteasome non-ATPase regulatory subunit 14 (Homo sapiens, UniProt O00487); experiment: inhibition of proteasome subunit RPN11 – biochemical, fluorescence polarization, uHTS hits, confirmation (AID 602368); assay type: functional
Chain of 26S proteasome non-ATPase regulatory subunit 14 (O00487 whole entry): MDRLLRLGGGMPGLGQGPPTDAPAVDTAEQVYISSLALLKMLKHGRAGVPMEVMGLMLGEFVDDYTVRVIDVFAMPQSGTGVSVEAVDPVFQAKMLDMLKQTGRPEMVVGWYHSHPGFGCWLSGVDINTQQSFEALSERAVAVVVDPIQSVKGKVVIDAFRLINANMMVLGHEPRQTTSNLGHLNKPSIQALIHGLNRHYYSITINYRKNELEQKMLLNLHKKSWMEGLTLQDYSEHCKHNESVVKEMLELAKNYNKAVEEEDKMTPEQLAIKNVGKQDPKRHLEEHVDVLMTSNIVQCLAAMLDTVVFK

T1 sequence (P07237 whole entry): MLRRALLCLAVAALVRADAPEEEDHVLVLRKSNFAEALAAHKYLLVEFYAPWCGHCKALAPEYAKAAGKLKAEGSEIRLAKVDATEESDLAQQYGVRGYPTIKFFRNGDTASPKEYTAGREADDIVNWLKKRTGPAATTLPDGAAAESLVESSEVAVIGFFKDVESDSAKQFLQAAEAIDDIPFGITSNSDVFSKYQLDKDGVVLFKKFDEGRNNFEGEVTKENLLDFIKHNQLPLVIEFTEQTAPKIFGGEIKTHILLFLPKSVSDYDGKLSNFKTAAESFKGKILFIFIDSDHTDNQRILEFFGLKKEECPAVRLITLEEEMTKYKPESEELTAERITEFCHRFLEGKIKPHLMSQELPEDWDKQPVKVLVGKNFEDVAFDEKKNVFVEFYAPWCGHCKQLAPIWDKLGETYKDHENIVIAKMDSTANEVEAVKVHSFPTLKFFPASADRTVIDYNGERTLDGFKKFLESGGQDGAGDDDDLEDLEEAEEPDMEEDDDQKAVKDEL
Chain of Benomyl/methotrexate resistance protein (P28873 whole entry): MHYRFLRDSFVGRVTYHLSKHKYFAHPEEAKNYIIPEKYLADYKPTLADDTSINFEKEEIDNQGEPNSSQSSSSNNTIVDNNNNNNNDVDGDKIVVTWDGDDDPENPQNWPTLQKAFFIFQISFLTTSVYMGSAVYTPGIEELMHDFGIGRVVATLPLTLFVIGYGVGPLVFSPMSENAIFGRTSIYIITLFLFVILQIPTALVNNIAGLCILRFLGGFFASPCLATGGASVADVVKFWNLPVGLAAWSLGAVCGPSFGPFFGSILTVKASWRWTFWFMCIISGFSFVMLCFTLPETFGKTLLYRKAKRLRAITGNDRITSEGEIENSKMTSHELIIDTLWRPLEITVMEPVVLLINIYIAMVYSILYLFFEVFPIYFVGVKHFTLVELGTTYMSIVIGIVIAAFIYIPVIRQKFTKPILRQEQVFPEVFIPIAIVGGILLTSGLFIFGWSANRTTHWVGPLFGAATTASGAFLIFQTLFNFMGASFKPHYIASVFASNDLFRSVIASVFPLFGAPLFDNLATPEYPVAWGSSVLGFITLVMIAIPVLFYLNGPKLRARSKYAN
Chain of Proto-oncogene tyrosine-protein kinase Src (P12931 2-536 limits assumed): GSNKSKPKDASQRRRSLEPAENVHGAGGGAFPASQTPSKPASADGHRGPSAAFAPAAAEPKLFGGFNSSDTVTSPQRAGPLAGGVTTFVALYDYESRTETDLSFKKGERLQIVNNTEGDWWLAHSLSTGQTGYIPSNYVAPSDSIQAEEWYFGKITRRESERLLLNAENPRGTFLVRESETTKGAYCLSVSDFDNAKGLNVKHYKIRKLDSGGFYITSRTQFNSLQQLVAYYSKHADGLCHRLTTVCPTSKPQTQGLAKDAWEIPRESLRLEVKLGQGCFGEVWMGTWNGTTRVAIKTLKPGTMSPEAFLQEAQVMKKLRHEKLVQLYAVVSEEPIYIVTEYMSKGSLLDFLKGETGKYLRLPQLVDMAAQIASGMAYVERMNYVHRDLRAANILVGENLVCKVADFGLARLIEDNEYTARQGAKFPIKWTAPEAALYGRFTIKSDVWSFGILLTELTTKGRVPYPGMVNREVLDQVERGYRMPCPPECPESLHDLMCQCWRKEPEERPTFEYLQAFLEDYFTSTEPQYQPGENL
Chain of 72 kDa type IV collagenase (P08253 whole entry): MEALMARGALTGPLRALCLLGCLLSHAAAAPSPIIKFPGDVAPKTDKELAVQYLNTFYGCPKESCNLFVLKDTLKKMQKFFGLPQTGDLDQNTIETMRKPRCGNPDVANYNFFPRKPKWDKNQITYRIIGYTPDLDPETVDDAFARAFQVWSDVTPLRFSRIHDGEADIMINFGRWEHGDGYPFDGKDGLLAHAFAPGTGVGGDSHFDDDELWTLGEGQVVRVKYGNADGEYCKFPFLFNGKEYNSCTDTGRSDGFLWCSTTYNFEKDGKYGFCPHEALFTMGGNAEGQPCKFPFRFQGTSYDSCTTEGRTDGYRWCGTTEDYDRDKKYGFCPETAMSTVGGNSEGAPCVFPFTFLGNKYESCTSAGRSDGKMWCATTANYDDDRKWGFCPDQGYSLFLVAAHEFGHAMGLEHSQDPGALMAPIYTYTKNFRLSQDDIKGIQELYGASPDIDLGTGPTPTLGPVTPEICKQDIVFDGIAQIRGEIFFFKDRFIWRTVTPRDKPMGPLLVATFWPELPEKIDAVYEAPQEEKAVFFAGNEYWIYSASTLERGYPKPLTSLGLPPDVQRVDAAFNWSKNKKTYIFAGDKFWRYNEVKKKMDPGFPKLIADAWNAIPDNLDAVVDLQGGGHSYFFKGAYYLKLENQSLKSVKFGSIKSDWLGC
Chain of Vascular endothelial growth factor receptor 2 (P35968 whole entry): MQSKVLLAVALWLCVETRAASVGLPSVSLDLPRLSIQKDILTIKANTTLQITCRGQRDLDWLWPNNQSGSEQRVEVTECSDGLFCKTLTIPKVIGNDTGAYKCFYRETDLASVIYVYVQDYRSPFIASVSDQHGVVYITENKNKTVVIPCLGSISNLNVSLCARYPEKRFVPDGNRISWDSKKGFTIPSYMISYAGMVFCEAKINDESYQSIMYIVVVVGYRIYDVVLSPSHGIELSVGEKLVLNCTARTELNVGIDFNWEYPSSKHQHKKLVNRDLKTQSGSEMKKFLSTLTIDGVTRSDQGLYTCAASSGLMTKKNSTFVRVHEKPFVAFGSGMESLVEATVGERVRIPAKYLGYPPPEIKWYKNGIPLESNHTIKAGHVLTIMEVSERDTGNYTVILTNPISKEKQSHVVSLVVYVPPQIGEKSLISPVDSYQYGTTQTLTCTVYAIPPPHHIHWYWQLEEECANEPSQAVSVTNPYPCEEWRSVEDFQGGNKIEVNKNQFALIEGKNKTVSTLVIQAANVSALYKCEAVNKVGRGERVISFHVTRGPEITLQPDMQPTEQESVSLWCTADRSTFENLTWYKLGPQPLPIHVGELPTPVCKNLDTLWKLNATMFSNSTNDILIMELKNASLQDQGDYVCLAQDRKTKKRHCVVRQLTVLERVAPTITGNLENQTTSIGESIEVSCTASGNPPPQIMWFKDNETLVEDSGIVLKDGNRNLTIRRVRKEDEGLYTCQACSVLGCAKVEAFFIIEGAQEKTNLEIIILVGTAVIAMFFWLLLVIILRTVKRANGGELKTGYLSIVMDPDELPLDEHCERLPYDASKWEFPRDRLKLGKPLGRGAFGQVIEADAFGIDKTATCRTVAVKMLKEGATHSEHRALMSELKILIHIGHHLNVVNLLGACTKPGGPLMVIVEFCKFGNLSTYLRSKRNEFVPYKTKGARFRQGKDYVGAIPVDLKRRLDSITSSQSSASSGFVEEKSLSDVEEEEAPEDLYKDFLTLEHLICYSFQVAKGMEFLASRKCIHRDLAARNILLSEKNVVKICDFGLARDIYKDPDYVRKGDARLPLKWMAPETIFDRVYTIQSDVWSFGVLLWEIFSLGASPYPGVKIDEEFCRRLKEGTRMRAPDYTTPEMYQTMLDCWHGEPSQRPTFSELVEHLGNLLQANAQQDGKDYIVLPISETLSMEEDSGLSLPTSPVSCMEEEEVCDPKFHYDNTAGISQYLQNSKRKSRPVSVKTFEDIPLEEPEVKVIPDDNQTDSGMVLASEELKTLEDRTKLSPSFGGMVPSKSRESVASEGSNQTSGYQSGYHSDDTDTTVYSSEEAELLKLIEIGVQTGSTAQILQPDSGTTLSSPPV
Chain of Tyrosine-protein kinase Lyn (P07948 whole entry): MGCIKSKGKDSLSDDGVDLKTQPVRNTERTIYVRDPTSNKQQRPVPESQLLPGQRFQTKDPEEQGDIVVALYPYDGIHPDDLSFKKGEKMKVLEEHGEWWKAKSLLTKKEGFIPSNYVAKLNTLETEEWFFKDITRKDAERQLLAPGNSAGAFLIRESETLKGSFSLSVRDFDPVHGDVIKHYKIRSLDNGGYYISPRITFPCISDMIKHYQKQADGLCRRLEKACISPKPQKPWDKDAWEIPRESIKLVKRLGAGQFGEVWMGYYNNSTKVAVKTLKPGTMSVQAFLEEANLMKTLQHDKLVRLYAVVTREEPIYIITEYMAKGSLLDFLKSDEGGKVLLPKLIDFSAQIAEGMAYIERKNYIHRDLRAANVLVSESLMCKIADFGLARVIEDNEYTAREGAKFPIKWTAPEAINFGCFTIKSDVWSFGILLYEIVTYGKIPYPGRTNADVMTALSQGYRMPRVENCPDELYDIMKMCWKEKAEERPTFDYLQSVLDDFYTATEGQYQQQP
Chain of Tyrosine-protein kinase Lck (P06239 whole entry): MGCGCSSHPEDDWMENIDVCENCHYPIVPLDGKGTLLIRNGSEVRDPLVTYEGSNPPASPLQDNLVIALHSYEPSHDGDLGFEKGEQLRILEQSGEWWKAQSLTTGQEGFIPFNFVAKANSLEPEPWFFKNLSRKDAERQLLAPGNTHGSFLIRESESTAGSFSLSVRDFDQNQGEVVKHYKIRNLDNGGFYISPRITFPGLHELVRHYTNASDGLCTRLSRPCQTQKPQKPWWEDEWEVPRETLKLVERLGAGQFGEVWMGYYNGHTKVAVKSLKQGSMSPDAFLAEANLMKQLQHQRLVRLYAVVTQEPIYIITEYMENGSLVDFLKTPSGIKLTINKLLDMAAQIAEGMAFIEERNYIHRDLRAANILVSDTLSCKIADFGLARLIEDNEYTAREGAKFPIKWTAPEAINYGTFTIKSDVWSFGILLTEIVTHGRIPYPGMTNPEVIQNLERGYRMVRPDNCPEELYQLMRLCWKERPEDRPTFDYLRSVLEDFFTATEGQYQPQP

IC50 [5]: 4040 nM (active)
IC50 [6]: 7640 nM (active)
Structure (SMILES): COc1ccc(Oc2c(F)cnn(-c3cccc(C)c3)c2=O)cc1

Ki [9]: 1.58 nM (active)
Ki [10]: 1 nM (active)
Ki [11]: 79.4 nM (active)
Ki [12]: 15.8 nM (active)
Ki [13]: 126 nM (active)
Ki [14]: 0.631 nM (active)
Ki [15]: 12.6 nM (active)
Ki [16]: 31.6 nM (active)
Ki [17]: 5.01 nM (active)
Ki [18]: 63.1 nM (active)
Ki [19]: 200 nM (active)
Ki [20]: 1.26 nM (active)
Structure (SMILES): COc1ccc(-c2ccc(NC(=O)Nc3ccc(OC(F)(F)F)cc3)cc2)c2c(N)noc12

The next lines start with the compound.

Structure (SMILES): CCOC(=O)c1c(CN2CCN(CCO)CC2)n(-c2ccccc2)c2cc(Br)c(O)cc12
AC50 [1]: 2000 nM (active)
AC50 [2]: > 52000 nM (inactive)
AC50 [3]: 610 nM (active)
IC50 [4]: 20200 nM (active)

Structure (SMILES): CC(C)C(=O)N1CCC2(CC1)Oc1ccc(F)cc1C(=O)C21CC(c2ccc(Cl)cc2)=NO1 (centres undefined)
EC50 [7]: 12600 nM (active)
EC50 [8]: 31700 nM (active)

Structure (SMILES): CCOc1ccc(-c2cn3c([n+]2-c2ccccc2)CCCCC3)cc1
IC50 [21]: > 80000 nM (inactive)
EC50 [22]: 6830 nM (active)
AC50 [23]: 998 nM (active)
EC50 [24]: 463 nM (active)
EC50 [25]: 15100 nM (active)

Structure (SMILES): CC(=O)n1cc([C@H]2C=C(C(=O)Nc3ccccc3)O[C@@H](OCc3ccc(CO)cc3)C2)c2ccccc21
IC50 [26]: > 20000 nM (inactive)
IC50 [27]: 80600 nM (active)
IC50 [28]: > 100000 nM (inactive)
IC50 [29]: 65600 nM (active)
